# Experimental data: ChEMBL document CHEMBL5303766, “Data for DCP probe FHT-2344” (2022)
# Tests used:
# [1] = target: Cyclin-dependent kinase-like 1 (Homo sapiens) (UniProt Q00532); experiment: CDKL1 SGC Tm panel (DSF); conditions: for ΔTm: Compound concentration 10.0 uM
# [2] = target: T1, Serine/threonine-protein kinase 17A (Homo sapiens) (UniProt Q9UEE5); experiment: STK17A SGC Tm panel (DSF); conditions: for ΔTm: Compound concentration 10.0 uM
# T1 sequence (whole entry): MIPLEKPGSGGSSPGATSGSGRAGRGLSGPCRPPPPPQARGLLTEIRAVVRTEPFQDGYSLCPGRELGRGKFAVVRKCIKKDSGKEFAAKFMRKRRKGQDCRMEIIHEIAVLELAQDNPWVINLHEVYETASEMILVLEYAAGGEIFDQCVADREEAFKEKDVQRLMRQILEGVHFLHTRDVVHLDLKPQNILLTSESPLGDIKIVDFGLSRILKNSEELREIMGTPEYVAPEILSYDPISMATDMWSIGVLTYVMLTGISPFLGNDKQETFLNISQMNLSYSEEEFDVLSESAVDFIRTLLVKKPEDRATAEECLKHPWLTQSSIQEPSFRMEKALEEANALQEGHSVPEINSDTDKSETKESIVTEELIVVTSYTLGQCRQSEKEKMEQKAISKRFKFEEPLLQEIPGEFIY
# [3] = target: T2, Serine/threonine-protein kinase 17B (Homo sapiens) (UniProt O94768); experiment: STK17B SGC Tm panel (DSF); conditions: for ΔTm: Compound concentration 10.0 uM
# T2 sequence (whole entry): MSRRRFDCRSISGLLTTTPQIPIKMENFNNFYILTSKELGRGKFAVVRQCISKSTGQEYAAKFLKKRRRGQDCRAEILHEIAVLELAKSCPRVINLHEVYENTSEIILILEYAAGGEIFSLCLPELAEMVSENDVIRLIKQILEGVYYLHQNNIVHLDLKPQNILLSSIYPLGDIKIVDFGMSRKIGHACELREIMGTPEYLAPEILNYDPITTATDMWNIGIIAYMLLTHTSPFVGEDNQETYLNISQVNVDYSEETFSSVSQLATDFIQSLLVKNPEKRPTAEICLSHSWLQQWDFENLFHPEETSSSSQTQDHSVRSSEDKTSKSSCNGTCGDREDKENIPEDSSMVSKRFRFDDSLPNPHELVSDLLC
# [4] = target: T3, Peregrin (Homo sapiens) (UniProt P55201); experiment: BRPF1 SGC Tm panel (DSF); conditions: for ΔTm: Compound concentration 10.0 uM
# T3 sequence (whole entry): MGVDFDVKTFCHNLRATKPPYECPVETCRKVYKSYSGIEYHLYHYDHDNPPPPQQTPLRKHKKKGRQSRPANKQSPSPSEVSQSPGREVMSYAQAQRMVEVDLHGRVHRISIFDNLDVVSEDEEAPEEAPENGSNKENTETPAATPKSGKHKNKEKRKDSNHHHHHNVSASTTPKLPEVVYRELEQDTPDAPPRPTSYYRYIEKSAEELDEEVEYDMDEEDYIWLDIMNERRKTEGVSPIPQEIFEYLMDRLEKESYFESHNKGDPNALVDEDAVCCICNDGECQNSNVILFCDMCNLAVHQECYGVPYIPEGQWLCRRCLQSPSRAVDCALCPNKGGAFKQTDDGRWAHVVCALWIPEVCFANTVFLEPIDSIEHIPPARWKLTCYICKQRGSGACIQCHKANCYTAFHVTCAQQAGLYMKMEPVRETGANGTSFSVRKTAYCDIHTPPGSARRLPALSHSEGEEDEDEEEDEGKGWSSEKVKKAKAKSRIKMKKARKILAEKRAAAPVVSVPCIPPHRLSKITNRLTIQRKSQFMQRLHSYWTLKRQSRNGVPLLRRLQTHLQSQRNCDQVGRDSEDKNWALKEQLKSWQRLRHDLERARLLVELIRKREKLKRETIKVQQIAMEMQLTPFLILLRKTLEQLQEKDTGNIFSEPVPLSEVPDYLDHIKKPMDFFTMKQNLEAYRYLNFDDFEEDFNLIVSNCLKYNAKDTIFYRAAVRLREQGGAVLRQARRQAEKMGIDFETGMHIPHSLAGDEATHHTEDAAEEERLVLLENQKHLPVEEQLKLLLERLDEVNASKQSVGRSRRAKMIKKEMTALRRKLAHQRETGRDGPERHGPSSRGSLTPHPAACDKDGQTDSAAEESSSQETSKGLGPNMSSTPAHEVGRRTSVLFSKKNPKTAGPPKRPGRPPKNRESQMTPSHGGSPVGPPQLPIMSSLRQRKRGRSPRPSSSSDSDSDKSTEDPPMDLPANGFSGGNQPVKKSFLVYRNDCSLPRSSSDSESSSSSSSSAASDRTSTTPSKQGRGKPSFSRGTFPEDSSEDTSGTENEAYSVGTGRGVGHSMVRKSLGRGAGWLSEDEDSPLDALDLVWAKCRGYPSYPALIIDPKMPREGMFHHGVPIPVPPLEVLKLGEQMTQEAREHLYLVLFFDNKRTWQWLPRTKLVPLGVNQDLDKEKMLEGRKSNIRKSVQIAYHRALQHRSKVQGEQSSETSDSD
# [5] = target: T4, Dual specificity mitogen-activated protein kinase kinase 7 (Homo sapiens) (UniProt O14733); experiment: MAP2K7 SGC Tm panel (DSF); conditions: for ΔTm: Compound concentration 10.0 uM
# T4 sequence (whole entry): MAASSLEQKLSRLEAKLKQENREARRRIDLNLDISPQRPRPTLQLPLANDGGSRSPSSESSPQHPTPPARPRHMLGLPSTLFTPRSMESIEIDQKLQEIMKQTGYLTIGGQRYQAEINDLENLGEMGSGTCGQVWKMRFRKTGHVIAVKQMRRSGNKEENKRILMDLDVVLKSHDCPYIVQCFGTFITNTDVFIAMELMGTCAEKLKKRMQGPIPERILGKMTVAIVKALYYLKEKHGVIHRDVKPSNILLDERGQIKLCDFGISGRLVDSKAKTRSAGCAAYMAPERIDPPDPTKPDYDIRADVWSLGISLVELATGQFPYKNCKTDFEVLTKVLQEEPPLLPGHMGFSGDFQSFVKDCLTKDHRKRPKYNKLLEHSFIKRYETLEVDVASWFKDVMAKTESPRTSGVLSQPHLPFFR
# [6] = target: 5-hydroxytryptamine receptor 1D (Homo sapiens) (UniProt P28221); conditions: Compound concentration 10.0 uM
# 5-hydroxytryptamine receptor 1D (Homo sapiens), sequence (P28221 whole entry): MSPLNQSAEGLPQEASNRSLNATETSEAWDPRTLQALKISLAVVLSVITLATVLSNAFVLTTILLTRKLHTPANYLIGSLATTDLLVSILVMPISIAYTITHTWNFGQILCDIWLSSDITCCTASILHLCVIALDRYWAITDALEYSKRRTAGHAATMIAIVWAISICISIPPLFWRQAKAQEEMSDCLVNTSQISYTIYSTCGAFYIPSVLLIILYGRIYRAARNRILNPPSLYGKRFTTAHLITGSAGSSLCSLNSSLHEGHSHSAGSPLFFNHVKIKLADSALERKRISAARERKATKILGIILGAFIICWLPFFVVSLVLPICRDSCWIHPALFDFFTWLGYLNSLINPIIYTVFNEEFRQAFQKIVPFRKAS
# Cyclin-dependent kinase-like 1 (Homo sapiens), sequence (Q00532 whole entry): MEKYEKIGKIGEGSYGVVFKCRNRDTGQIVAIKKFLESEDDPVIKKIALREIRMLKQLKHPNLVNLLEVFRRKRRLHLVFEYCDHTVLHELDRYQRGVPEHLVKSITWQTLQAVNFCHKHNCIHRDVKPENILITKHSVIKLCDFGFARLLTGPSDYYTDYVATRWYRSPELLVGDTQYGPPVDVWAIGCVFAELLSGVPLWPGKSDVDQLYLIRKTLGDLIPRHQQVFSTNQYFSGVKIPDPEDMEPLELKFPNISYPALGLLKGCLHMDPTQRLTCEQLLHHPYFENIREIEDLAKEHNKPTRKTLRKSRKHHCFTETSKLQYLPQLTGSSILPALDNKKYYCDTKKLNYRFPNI
delta Tm Staurosporine positive control [1],ΔTm [1],delta Tm Staurosporine positive control [2],ΔTm [2],delta Tm Staurosporine positive control [3],ΔTm [3],delta Tm Staurosporine positive control [4],ΔTm [4],delta Tm Staurosporine positive control [5],ΔTm [5],inhibition [6] [%],SMILES
5,0.194,12.6,0.566,10,-0.114,-0.0506,-1.23,6.68,0.168,16.7,COC[C@H](NC(=O)c1ccn(S(C)(=O)=O)c1)C(=O)Nc1nc(-c2cccc(-c3ccn(C)n3)c2)cs1
5,0.189,12.6,1.03,10,-12.2,-0.0506,-1.18,6.68,0.97,36,C[C@H](NC(=O)c1cn(C2(C#N)CC2)cn1)C(=O)Nc1nc(-c2cccc(-c3ccn(C)n3)c2)cs1
